Calls of active or inactive are those of the source.
Columns and labels:
[1] = target: NACHT, LRR and PYD domains-containing protein 3 (Homo sapiens, UniProt Q96P20); test: NALP3 inhibitors in yeast, dose response, luminescent (AID 488799); format: functional
[2] = target: Melanin-concentrating hormone receptor 1 (Homo sapiens, UniProt Q99705); test: Late-stage fluorescence-based counterscreen for antagonists of the G-protein coupled receptor 7 (GPR7): cell-based dose response assay to identify antagonists of the melanin-concentrating hormone receptor 1 (MCHR1). [Related pubchem assays (depositor defined):AID1861, AID1880, AID1952, AID2148, AID2251, AID2257, AID485339]; format: functional;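 further: stimulated with 30 nM MCH peptide agonist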
Melanin-concentrating hormone receptor 1, sequence (Q99705 whole entry): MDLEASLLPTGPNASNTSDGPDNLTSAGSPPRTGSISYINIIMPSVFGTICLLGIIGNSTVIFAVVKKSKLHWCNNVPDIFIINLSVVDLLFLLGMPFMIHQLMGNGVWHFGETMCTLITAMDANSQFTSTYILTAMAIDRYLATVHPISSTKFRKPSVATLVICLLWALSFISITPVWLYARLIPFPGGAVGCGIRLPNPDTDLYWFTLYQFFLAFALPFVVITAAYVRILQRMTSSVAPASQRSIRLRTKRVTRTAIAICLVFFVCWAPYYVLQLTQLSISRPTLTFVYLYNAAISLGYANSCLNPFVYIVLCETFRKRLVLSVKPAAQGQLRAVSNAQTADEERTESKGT

[3] = target: T1, Neuropeptides B/W receptor type 1 (Homo sapiens, UniProt P48145); test: human NPBW1 receptor blockade, IC50 – cell-based, fluorescence, dose response, late-stage follow-up (AID 463251); format: functional
T1 sequence (P48145 whole entry): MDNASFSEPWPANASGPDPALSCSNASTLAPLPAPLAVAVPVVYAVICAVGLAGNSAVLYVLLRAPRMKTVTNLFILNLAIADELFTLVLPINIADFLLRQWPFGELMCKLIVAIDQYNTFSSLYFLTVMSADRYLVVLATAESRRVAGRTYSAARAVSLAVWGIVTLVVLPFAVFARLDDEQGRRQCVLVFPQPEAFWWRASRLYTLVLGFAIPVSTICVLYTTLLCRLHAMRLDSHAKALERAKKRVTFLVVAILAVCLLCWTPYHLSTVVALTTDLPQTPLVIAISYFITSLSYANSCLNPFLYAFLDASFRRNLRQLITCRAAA

[4] = Luminescence Cell-Based Dose Response HTS to Identify Activators of Luciferase Translation or Activity in H4-C Neuroglioblastoma Cells. [Related pubchem assays: 1829 (Project Summary), 1814 (Primary HTS)]; format: functional
[5] = Luminescence Cell-Based Dose Retest to Confirm Activators of 5'UTR Stem-Loop Driven Alpha-Synuclein mRNA Translation in H4 Neuroglioblastoma Cells. [Related pubchem assays (depositor defined):AID1813, AID1829]; format: functional
[6] = Luminescence Cell-Based Dose Response HTS to Identify Activators of 5'UTR Stem-Loop Driven Prion Protein mRNA Translation in H4-C Neuroglioblastoma Cells. [Related pubchem assays: 1829 (Project Summary), 1814 (Primary HTS)]; format: functional
[7] = Luminescence Cell-Based Dose Response HTS to Identify Activators of Luciferase Translation or Activity in H4 […] Cells. [Related pubchem assays: 1829 (Project Summary), 1814 (Primary HTS)]; format: functional
[8] = Luminescence Cell-Based Dose Confirmation HTS to Identify Activators of 5'UTR Stem-Loop Driven Alpha-Synuclein mRNA Translation in H4 Neuroglioblastoma Cells. [Related pubchem assays: 1829 (Project Summary), 1814 (Primary HTS)]; format: functional
H4 = test: Luminescence Cell-Based Dose Response HTS to Identify Activators of 5'UTR Stem-Loop Driven Prion Protein mRNA Translation in H4 Neuroglioblastoma Cells. [Related pubchem assays: 1829 (Project Summary), 1814 (Primary HTS)]; format: functional; conditions: Homo sapiens
X-box-binding protein 1 = X-box-binding protein 1 (Homo sapiens, UniProt P17861); format: functional, Cricetulus griseus;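 further: confirmatory dose-response counter-screen serving a CHOP assay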
X-box-binding protein 1, sequence (P17861 whole entry): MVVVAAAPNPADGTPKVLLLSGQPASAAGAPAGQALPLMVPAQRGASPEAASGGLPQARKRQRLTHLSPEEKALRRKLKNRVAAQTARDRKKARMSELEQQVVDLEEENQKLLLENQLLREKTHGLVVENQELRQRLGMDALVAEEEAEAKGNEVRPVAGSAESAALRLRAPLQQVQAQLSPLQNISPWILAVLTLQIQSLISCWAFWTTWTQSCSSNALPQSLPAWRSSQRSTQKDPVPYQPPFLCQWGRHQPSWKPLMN

[9] = target: T2, Voltage-dependent T-type calcium channel subunit alpha-1H (Homo sapiens, UniProt O95180); test: Inhibitors of T-Type Calcium Channels. [Related pubchem assays (depositor defined):AID449739, AID463087, AID489005, AID493041, AID504579, AID504584, AID504619, AID504628]; format: functional
T2 sequence (O95180 whole entry): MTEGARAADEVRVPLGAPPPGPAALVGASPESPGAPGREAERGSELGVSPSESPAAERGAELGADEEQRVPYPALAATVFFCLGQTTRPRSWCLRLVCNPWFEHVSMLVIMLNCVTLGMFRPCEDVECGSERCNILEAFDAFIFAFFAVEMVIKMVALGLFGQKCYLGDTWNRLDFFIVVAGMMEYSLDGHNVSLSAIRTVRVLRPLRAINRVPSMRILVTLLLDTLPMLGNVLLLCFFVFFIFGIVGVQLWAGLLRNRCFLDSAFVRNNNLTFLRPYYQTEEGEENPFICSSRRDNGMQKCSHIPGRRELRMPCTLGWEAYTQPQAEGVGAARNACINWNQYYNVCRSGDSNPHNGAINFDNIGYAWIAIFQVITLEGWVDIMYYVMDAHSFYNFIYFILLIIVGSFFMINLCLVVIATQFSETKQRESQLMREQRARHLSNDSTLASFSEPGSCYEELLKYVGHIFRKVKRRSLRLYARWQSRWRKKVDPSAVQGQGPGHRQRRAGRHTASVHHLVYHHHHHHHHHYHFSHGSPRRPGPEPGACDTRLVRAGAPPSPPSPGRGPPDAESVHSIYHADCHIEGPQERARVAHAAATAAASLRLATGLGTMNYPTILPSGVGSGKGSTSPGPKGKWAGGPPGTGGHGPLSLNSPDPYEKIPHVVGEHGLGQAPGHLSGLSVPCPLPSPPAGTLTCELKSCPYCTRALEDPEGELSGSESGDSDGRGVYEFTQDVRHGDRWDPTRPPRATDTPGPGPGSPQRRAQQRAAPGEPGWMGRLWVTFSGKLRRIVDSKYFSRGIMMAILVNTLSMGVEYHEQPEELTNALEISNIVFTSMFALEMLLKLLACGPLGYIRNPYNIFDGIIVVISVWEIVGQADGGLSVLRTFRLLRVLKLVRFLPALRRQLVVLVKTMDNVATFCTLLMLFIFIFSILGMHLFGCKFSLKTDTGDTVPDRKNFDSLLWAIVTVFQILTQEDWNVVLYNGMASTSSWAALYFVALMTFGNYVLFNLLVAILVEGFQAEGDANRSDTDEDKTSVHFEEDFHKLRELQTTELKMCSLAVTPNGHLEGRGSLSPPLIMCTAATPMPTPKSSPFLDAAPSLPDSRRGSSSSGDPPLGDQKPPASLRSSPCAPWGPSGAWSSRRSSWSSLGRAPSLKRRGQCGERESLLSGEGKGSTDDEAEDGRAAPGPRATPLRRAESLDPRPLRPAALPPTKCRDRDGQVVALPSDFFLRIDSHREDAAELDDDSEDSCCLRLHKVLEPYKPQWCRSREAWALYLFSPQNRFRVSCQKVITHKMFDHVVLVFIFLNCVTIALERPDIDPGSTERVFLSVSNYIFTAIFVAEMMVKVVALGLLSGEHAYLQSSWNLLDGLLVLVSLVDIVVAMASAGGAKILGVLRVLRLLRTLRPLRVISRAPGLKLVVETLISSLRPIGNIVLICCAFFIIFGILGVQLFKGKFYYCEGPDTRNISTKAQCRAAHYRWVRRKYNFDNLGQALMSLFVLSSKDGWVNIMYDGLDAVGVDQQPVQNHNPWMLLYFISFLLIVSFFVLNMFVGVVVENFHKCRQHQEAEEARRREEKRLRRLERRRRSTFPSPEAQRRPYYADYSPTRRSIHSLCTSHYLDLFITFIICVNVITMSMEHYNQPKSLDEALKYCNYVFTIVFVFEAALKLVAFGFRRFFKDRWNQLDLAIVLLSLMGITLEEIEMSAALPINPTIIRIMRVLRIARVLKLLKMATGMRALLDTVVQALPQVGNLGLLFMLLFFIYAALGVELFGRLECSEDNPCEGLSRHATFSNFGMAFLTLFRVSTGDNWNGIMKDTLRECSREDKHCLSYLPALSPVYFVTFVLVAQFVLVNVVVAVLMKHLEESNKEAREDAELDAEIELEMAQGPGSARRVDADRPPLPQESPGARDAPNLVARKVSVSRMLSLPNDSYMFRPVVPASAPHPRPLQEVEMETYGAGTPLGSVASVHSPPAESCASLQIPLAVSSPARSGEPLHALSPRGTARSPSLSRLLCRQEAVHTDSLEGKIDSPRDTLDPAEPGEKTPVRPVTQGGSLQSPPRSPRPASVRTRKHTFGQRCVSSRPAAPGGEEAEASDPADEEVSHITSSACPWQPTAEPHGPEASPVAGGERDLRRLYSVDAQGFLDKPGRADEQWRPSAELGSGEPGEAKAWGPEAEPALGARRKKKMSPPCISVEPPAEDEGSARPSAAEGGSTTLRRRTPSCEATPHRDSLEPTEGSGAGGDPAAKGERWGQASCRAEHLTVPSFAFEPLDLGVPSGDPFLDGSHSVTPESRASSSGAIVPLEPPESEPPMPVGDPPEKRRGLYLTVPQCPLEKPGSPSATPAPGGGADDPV

[10] = target: T2, Voltage-dependent T-type calcium channel subunit alpha-1H; format: functional
[11] = target: T3, Scavenger receptor class B member 1 (Mus musculus, UniProt Q61009); test: mouse SR-BI DiI-HDL uptake blockers – ldlA[mSR-BI] cells, fluorescence, cherry pick, dose response (AID 493194); format: functional, cell-based;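 further: cellular uptake of fluorescent DiI-labeled HDL measured as cell fluorescence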
T3 sequence (Q61009 whole entry): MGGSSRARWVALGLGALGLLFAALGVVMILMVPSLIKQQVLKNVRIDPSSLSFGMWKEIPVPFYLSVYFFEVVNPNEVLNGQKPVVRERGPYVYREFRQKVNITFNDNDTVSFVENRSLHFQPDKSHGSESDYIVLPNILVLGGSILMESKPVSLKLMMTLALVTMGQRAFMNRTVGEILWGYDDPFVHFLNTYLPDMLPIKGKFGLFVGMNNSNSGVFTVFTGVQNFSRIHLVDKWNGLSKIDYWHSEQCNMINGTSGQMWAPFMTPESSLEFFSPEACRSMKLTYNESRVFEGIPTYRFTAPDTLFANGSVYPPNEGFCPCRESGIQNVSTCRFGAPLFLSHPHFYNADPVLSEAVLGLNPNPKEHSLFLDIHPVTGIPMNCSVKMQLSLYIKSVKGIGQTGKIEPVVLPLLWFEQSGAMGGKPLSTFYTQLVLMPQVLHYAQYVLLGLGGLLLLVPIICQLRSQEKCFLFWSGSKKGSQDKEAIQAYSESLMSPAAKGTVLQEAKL

[12] = (§1) Counterscreen for antagonists of the orexin 1 receptor (OX1R; HCRTR1): Fluorescence-based cell-based high throughput dose response assay to identify antagonists of the parental CHO cell line. [Related pubchem assays (depositor defined):AID434989, AID435008, AID463079, AID485270, AID492963, AID492964, AID492965, AID493232, AID504699, AID504701]; format: functional
[13] = target: T4, Orexin/Hypocretin receptor type 1 (Homo sapiens, UniProt O43613); test: Homogeneous Time Resolved Fluorescence (HTRF)-based cell-based high throughput dose response assay for antagonists of the orexin 1 receptor (OX1R; HCRTR1). [Related pubchem assays (depositor defined):AID434989, AID435008, AID463079, AID485270, AID492963, AID492964, AID492965, AID493232, AID504717, AID504718]; format: functional
T4 sequence (O43613 whole entry): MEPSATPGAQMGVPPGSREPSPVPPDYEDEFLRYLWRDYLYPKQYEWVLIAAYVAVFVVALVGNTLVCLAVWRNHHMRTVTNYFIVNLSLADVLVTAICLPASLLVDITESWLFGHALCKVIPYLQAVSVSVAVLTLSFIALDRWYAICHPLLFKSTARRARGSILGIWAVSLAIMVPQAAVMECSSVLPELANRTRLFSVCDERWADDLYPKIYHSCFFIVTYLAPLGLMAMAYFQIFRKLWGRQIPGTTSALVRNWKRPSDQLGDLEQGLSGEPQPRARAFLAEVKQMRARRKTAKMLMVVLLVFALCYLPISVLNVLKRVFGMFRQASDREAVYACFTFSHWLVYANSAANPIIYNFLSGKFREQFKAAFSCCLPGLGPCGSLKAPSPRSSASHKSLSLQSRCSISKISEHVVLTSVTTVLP

[14] = target: T4, Orexin/Hypocretin receptor type 1; test: Fluorescence-based cell-based high throughput dose response assay for antagonists of the orexin 1 receptor (OX1R; HCRTR1). [Related pubchem assays (depositor defined):AID434989, AID435008, AID463079, AID485270, AID492963, AID492964, AID492965, AID493232, AID504717, AID504718]; format: functional
CHO-K1 = test: as §1, with “Homogeneous time resolved fluorescence (HTRF)-based” for “Fluorescence-based”, “cell-based” for “cell-based high throughput”, “CHO-K1” for “CHO”; format: functional; conditions: Cricetulus griseus;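 further: potency for inhibition of ATP-stimulated IP1 production as antagonists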
Cytochrome P450 1A2 = target: T5, Cytochrome P450 1A2 (Homo sapiens, UniProt P05177);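 further: PubChem cytochrome P450 panel assay, CYP1A2 panel member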
T5 sequence (P05177 whole entry): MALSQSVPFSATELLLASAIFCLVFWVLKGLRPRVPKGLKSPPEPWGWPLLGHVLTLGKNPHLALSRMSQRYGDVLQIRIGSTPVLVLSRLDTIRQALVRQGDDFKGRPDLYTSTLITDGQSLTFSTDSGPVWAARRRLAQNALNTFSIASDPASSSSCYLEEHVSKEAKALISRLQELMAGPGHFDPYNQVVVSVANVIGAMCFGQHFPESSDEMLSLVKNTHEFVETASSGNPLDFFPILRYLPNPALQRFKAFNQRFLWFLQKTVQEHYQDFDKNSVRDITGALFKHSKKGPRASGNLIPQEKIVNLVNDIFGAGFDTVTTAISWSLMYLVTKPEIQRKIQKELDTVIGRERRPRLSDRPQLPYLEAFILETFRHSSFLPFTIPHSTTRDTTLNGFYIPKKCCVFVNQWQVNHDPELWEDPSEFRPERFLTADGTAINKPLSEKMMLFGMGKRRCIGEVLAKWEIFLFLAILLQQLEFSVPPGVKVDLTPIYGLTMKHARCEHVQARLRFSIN

NACHT, LRR and PYD domains-containing protein 3, sequence (Q96P20 whole entry, the tested form may be a part): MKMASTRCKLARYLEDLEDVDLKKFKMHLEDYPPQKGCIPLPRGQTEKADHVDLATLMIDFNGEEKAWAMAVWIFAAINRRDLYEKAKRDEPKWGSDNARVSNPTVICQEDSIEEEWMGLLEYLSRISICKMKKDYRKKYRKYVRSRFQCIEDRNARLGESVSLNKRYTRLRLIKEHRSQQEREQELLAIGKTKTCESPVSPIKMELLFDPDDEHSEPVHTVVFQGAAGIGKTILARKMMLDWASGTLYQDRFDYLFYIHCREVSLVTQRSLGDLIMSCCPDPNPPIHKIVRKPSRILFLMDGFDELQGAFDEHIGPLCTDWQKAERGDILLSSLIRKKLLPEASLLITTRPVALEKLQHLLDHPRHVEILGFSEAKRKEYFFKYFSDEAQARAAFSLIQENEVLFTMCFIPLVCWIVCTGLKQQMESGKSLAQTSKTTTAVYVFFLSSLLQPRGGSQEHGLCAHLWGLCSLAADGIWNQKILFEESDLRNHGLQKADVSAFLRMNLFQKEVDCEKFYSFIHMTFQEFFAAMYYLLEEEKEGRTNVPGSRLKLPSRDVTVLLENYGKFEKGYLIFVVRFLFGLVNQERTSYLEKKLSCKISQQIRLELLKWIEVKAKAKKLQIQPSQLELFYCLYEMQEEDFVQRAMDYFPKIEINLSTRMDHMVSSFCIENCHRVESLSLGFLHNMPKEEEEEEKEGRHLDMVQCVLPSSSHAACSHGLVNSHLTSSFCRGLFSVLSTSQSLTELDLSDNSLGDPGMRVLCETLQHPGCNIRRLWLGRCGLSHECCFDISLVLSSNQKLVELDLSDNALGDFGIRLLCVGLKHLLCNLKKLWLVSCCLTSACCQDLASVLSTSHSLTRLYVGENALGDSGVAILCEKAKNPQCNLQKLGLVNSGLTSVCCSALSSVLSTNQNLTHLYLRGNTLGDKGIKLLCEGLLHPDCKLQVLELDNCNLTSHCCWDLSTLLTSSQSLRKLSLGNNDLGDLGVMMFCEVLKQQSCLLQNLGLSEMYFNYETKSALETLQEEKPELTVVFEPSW

With CC(C)NC(=O)c1c(O)c2ccccc2[nH]c1=O the IC50 [1] was 13.1 µM (active).
With CC(C)c1ccc(-n2ncc(Cl)c(Oc3ccc(Cl)cc3)c2=O)cc1 the IC50 [2] was 5.7 µM (active) and the IC50 [3] was 1.4 µM (active).
With Cc1ccc(NC(=O)c2ccc3snnc3c2)cc1 the EC50 [4] was 1.88 µM (active), the EC50 [5] was 0.885 µM (active) and the EC50 [6] was 0.185 µM (active). The EC50 [7] was 6.57 µM (active), the EC50 [8] was 2.76 µM (active) and the EC50 (H4) was > 120 µM (not active).
With CC(C)c1ccc(NC(=O)CSc2[nH]c(-c3ccccc3F)nc3ncnc2-3)cc1 the “Absolute IC50 (XBP1)” value (X-box-binding protein 1) was 10 µM.
In the case of O=S(=O)(NCc1ccccc1)c1ccc(S(=O)(=O)N(Cc2ccccn2)C2CCCC2)cc1, the EC50 [9] is reported as 2.35 µM (active) and the EC50 [10] is reported as 3.02 µM (active).
In the case of O=C(Nc1cccc(NC(=O)N2CCN(c3ccccc3)CC2)c1)N1CCN(c2ccccc2)CC1, the AC50 [11] is reported as 48.9 µM (active), the IC50 [12] is reported as 25.1 µM (inactive) and the IC50 [13] is reported as 10.4 µM (inactive). The IC50 [14] was 11 µM (inactive), the IC50 (CHO-K1) was > 66.2 µM (inactive) and the AC50 (Cytochrome P450 1A2) was 15.8 µM (inconclusive).
